Data on two compounds can be found in patent publication US9458202B2, “Peptidomimetic macrocycles with improved properties” (Aileron Therapeutics, Inc., priority 2008, dated 2016).

One data set is described as follows: Figure 2. The settings on record: for C0 / half-life / MRT: Sprague-Dawley, rat, plasma, iv; for MRT: read-out: MRTinf_obs. Set-up: AUCall: concentration or dose not given beside the values. As to the method: Table printed on a drawing sheet, Figure 2
Footnotes: 2 mg/mL iv bolus in Sprague-Dawley rats (10 mg/kg) / * 0.6 mg/mL iv bolus in Sprague-Dawley rats (3 mg/kg)
The patent's description of the figure: FIG. 2 lists the in vivo half-lives of peptidomimetic macrocycles of the invention. Half-lives were measured in Sprague Dawley rats after one intravenous bolus injection at 0.6 mg/mL or 2 mg/mL of each unlabeled peptidomimetic macrocycle at a 3 mg/kg or 10 mg/kg dose, respectively. Three animals were used per compound and concentrations were determined by mass-spectrometric analysis of blood levels (plasma).
First reader's note: An asterisk before the peptide name marks dosing at 3 mg/kg (0.6 mg/mL) instead of 10 mg/kg (2 mg/mL).

The nature of the next data set: circular dichroism. Set-up: unit not given here. The settings on record: 20 mM phosphoric acid; pH 2.0; 5 °C; 0.05 mg/mL.

Consider `CC[C@H](C)[C@H](NC(C)=O)C(=O)N[C@@H](Cc1c[nH]c2ccccc12)C(=O)N[C@H](C(=O)N[C@@H](C)C(=O)N[C@@H](CCC(N)=O)C(=O)N[C@@H](C)C(=O)N[C@@H](CC(C)C)C(=O)N[C@@H](CCCNC(=N)N)C(=O)N[C@@]1(C)CCCC=CCCC[C@@](C)(C(=O)N[C@@H](Cc2ccccc2)C(=O)N[C@@H](CC(N)=O)C(=O)N[C@@H](C)C(=O)N[C@@H](Cc2ccc(O)cc2)C(=O)N[C@@H](Cc2ccc(O)cc2)C(=O)N[C@@H](C)C(=O)N[C@@H](CCCNC(=N)N)C(=O)N[C@@H](CCCNC(=N)N)C(N)=O)NC(=O)[C@H](CC(=O)O)NC(=O)CNC(=O)[C@H]([C@@H](C)CC)NC1=O)[C@@H](C)CC` [SP9], for which, in “Figure 2”, the “AUCall” value is 124448 ng·h/mL; the “Cl_obs” value came out at 0.83 mL/min/kg; the C0 was determined as 159 µg/mL; the half-life – broadly, the time in which the quantity being followed falls by half – is 7.3 h. In “Figure 2”, the MRT was 4.5 h. Further, the helicity in the data set “circular dichroism” was -14900.
Turning to Ac-QSQQTFSNLWRLLPQN-NH2 [*SP22], in the data set “Figure 2”, the “AUCall” value came out at 75 ng·h/mL, the “Cl_obs” value turned out to be 700 mL/min/kg, the C0 was determined as 15.1 µg/mL and the half-life was less than 0.1 h. Moreover, the MRT in the data set “Figure 2” was less than 0.1 h. In the data set “circular dichroism”, this compound returned a helicity of -646.
